The values below are quoted from earlier work in patent publication US20110092597A1, “METHOD FOR TREATING HERPES VIRUS INFECTION” (priority 2009, published 2011).

Assay in data set [1]: not given
This is another data set of the same source.

As for `O=C(O)Cc1ccccc1Nc1c(Cl)cccc1Cl` [Diclofenac, 2-(2,6-dichloro-anilino)-phenyl-acetic acid], the Solubility in water result is recorded as “relatively low”. For `Nc1nc2c(ncn2COCCO)c(=O)[nH]1` [acyclovir, acycloguanosine], the Solubility in water entry was “poorly soluble”. Further, the Bioavailability entry in data set [1] is “low”.
